PubChem BioAssay AID2060906 (Molecular Pharmacology Branch, DTP, NCI, 2025)

Test system: 485176-168-R4-J1-PDC complex spheroid growth
Assay: Anticancer human tumor 485176-168-R4-J1-PDC patient-derived pancreatic adenocarcinoma cell line growth inhibition [RAS]
Settings: for viability, T/C: stronger effect = lower value
In short: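 Multi-cell-type spheroids: tumor cells plus HUVEC endothelial cells and mesenchymal stem cells. RAS-pathway inhibitors were combined with targeted agents, each dosed in half-log steps down from clinical Cmax, or from 10 microM when Cmax was unknown.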
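Note: spheroids exposed to compounds for seven days before readout.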
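Throughout, for viability, T/C: luminescence viability expressed relative to DMSO vehicle wells set as 100%.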

Q: What does the source list for `C=CC(=O)Nc1cc(Nc2nccc(-c3cn(C)c4ccccc34)n2)c(OC)cc1N(C)CCN(C)C` + C#Cc1c(F)ccc2cc(O)cc(-c3ncc4c(N5CC6CCC(C5)N6)nc(OCC56CCCN5CC(F)C6)nc4c3F)c12?
A: IC50 (curve of first compound, second compound 0.0316 µM): > 1000 nM; IC50 (curve of first compound, second compound 0.1 µM): > 1000 nM; IC50 (curve of first compound, second compound 0.316 µM): > 1000 nM; IC50 (curve of first compound, second compound 1 µM): > 1000 nM; IC50 (curve of first compound, second compound 3.16 µM): > 1000 nM; IC50 (curve of first compound, second compound 10 µM): > 1000 nM; viability, T/C (second compound 0.0316 µM, first compound 0.00316 µM): 103%; viability, T/C (second compound 0.0316 µM, first compound 0.01 µM): 90.8%; viability, T/C (second compound 0.0316 µM, first compound 0.0316 µM): 99%; viability, T/C (second compound 0.0316 µM, first compound 0.1 µM): 80.7%; viability, T/C (second compound 0.0316 µM, first compound 0.316 µM): 88.9%; viability, T/C (second compound 0.0316 µM, first compound 1 µM): 66.7%; viability, T/C (second compound 0.1 µM, first compound 0.00316 µM): 115%; viability, T/C (second compound 0.1 µM, first compound 0.01 µM): 109%; viability, T/C (second compound 0.1 µM, first compound 0.0316 µM): 92.7%; viability, T/C (second compound 0.1 µM, first compound 0.1 µM): 92.9%; viability, T/C (second compound 0.1 µM, first compound 0.316 µM): 86.6%; viability, T/C (second compound 0.1 µM, first compound 1 µM): 66.8%; viability, T/C (second compound 0.316 µM, first compound 0.00316 µM): 82.5%; viability, T/C (second compound 0.316 µM, first compound 0.01 µM): 83.1%; viability, T/C (second compound 0.316 µM, first compound 0.0316 µM): 99%; viability, T/C (second compound 0.316 µM, first compound 0.1 µM): 100%; viability, T/C (second compound 0.316 µM, first compound 0.316 µM): 88.4%; viability, T/C (second compound 0.316 µM, first compound 1 µM): 62.3%; viability, T/C (second compound 1 µM, first compound 0.00316 µM): 95.8%; viability, T/C (second compound 1 µM, first compound 0.01 µM): 80.8%; viability, T/C (second compound 1 µM, first compound 0.0316 µM): 91%; viability, T/C (second compound 1 µM, first compound 0.1 µM): 96.1%; viability, T/C (second compound 1 µM, first compound 0.316 µM): 85.2%; viability, T/C (second compound 1 µM, first compound 1 µM): 64.4%; viability, T/C (second compound 3.16 µM, first compound 0.00316 µM): 106%; viability, T/C (second compound 3.16 µM, first compound 0.01 µM): 89.5%; viability, T/C (second compound 3.16 µM, first compound 0.0316 µM): 96.7%; viability, T/C (second compound 3.16 µM, first compound 0.1 µM): 75.6%; viability, T/C (second compound 3.16 µM, first compound 0.316 µM): 70.7%; viability, T/C (second compound 3.16 µM, first compound 1 µM): 68.5%; viability, T/C (second compound 10 µM, first compound 0.00316 µM): 100%; viability, T/C (second compound 10 µM, first compound 0.01 µM): 86.6%; viability, T/C (second compound 10 µM, first compound 0.0316 µM): 85.3%; viability, T/C (second compound 10 µM, first compound 0.1 µM): 103%; viability, T/C (second compound 10 µM, first compound 0.316 µM): 84%; viability, T/C (second compound 10 µM, first compound 1 µM): 61.9%

Q: For `CC(C)NCC(C(=O)N1CCN(c2ncnc3c2C(C)CC3O)CC1)c1ccc(Cl)cc1` (centres undefined), which viability, T/C (compound 0.0316 µM) is on record?
A: 96.6% [middle of 4 runs]

Q: What about the viability, T/C (compound 0.1 µM) of the same compound?
A: 93.9% [middle of 4 runs]

Q: And the viability, T/C (compound 0.316 µM)?
A: 80.4% [middle of 4 runs]

Q: And the viability, T/C (compound 1 µM)?
A: 58.8% [middle of 4 runs]

Q: And the viability, T/C (compound 3.16 µM)?
A: 47.7% [middle of 4 runs]

Q: What about the viability, T/C (compound 10 µM) of the same compound?
A: 35% [middle of 4 runs]

Q: What about the IC50 (curve of compound) of the same compound?
A: 2.32 µM [middle of 4 runs]
